Laboratory results taken from patent publication EP0350948B1, “Porphyrin derivatives” (TOYOHAKKA KOGYO KABUSHIKI KAISHA, priority 1988, dated 1990).

Assays:
[1] = tested on: nitrosoamine-induced pancreatic cancer; experiment: in vivo hemorrhagic necrosis effect; design: species or system hamsters; key to Hemorrhagic necrosis effect: four scales of G4, G3, G2 and G1; four scales of G4, G3, G2 and G1; four scales of G4, G3, G2 and G1; four scales of G4, G3, G2 and G1; settings: for photograph of a cancer mass (Fig. 2): 24 hours after administration, Cn-Ga-DP-diAsp, n = even numbers; for Hemorrhagic necrosis effect: intensity of hemorrhagic necrosis at 24 hours following i.v. administration, and pathological study
Protocol: Cancer bearing hamsters of Experiment 1 were i.v. administered the test substance C6-Ga-DP-diAsp (10) (10 mg/ml) which had been diluted with phosphate buffer at 25 mg/kg bodyweight and 12.5 mg/kg bodyweight respectively. The animals were exsanguinated and autopsied at 24 hours after administration, and observed.
The evaluation was based on the four scales of G4, G3, G2 and G1.

[2] = tested on: nitrosoamine-induced pancreatic cancer; experiment: in vivo irradiation therapy using Yag laser; design: species or system hamsters; settings: i.v. 12.5 mg/kg bodyweight, Yag laser 1064 nm, 5 w, 10 sec x 4 at 24 hours after administration, autopsy 24 hours following irradiation
Protocol: Tumor bearing hamsters of Experiment 1 were i.v. administered the test materials C6-Ga-DP-diAsp (10) and C10 -Ga-DP-diAsp (16) (10 mg/ml) at 12.5 mg/kg bodyweight. At 24 hours after administration, the hair above the tumor site was shaved and irradiation with Yag laser commenced (1064 nm, 5 w, 10 sec x 4). At 24 hours following irradiation, the animals were exsanguinated and autopsied for observation.

[3] = tested on: nitrosoamine-induced pancreatic cancer; experiment: laser irradiation to the extirpated organ (excited fluorescent spectrum, N2-PLS measurement), tumor to tissue ratio; type: in vivo, Golden hamsters; settings: i.v. 25 mg/kg bodyweight, organs extirpated at 24 hours after administration
Protocol: Golden hamsters (males, 5 per group, bodyweight approximately 150 g) were implanted subcutaneously tumor cells of the nitrosoamine-induced pancreatic cancer. After 14 to 21 days following implantation, animals were intravenously (i.v.) administered the test substance EG-Ga-DP-diGly (10 mg/ml) which had been diluted with phosphate buffer at 25 mg/kg bodyweight. At 24 hours after administration, the organs including the tumor were extirpated, irradiated with N2-pulsed laser (N2, 337 nm, 2 ns, 400 - 1000 nm), and measured of excited fluorescent spectrum. The wavelengths of 600 - 900 nm were studied using the peak wavelength of NADH at 470 nm as a reference. (N2-PLS measurement). […] (Tumor to tissue ratio).
Excited fluorescent spectra of the organs extirpated at 24 hours after administration were measured, and the peak wavelength at 600 - 900 nm was calculated by setting the peak wavelength at 470 nm as the reference 1. As fluorescence in Mn, Fe and Cu complexes is not sufficiently intense as to enable N2-PLS measurement, the extraction method was applied to these compounds. At 24 hours following administration, the organs were extracted with an organic solvent (such as chloroform-methanol) via acetone powder, and the obtained extract was measured of UV or HPLC to calculate the tumor to tissue ratio.

[4] = tested on: Leukemia cells of a mouse (P388); experiment: in vitro photosensitivity test (cell growth inhibition ratio); type: cell-based; settings: irradiated at 10,000 lux for 1 hour, incubated for 48 hours, versus group shielded from light
Protocol: Leukemia cells of a mouse (P388) were placed in wells (a plate with 24 wells) at 5 x 10^4/well, and incubated for 2 hours. The test materials C8-Ga-DP-diAsp (12), C10-Mn-DP-diAsp (37) and photofrin II each at concentrations of 1.56, 3.13, 6.25, 12.5, 25, and 50 ng/ml (common ratio : 2) were prepared. The specified amounts of these test solutions were added to the above culture, irradiated at 10,000 lux for 1 hour, incubated for 48 hours, and the cells per one well were counted. A group shielded from light using an aluminium foil during irradiation was provided as control. The index of photosensitivity was obtained by dividing the cell counts of the respective groups with the cell count of an untreated group provided separately (cell growth inhibition ratio (%)).
However, this was attributed to the toxicity of the test material per se rather than to irradiation.

[5] = tested on: nitrosoamine-induced pancreatic cancer; experiment: in vivo cell growth inhibition effect (tumor size by slide calipers); design: species or system hamsters; settings: i.v. 25 mg/kg bodyweight
Protocol: Tumor bearing hamsters of Experiment 1 were i.v. administered the test substance C10-Mn-DP-diAsp (37) (10 mg/ml) diluted by phosphate buffer at 25 mg/kg bodyweight. The tumor size was measured supracutaneously using slide calipers on an appropriate day following administration.

[6] = tested on: nitrosoamine-induced pancreatic cancer; experiment: pathology of tumor and organs (hematoxylin-eosin sections); type: in vivo, hamsters; settings: treated as in Experiment 2, formalin fixed
Protocol: Tumor bearing hamsters of Experiment 1 were treated similarly as in Experiment 2 except that they were administered C12-Mn-DP-diAsp (48) instead of C6-Ga-DP-diAsp (10). Organs including the tumor (the treated group and the control group) were fixed with formalin, embedded in paraffin, cut into sections, double stained with hematoxylin-eosin, and observed pathologically.
Figs. 4 and 5 show photographs of the tumor cell necrosis of the treated group. There were many cell necrosis images and necrotic layers which were not present in the non-cancerous organs and the control group.

[7] = luminescence properties of porphyrin derivatives (Table 1); type: physicochemical
Description: There are two stages of destruction; Mechanism I under which the pigments are excited by light to assume the triple state which directly destroys the cancer cells, and Mechanism II under which the pigments in the triple state further excite oxygen to form the singlet state oxygen (activated oxygen) leading to cell necrosis. In the case of porphyrin derivatives, the Mechanism II is considered prevalent. By measuring the triple state life time (the fluorescence and phosphorescence life time) which indicates porphyrin's triple state, the length of phosphorescence life time is compared to reveal the intensity of photo-sensitivity. […] In other words, phosphorescence life time of metalloporphyrins coordinated with such metals as Zn and Ga is long while that of those coordinated with Mn, Fe, or Cu is very short.

[8] = i.v. 25 mg/kg and 12.5 mg/kg bodyweight, autopsy at 24 hours after administration

| Compound | photograph of a cancer mass (Fig. 2) [1] | Hemorrhagic necrosis effect [1] | tumor/tissue cancer/ kidney [3] | tumor/tissue cancer/ liver [3] | tumor/tissue cancer/ lung [3] | tumor/tissue cancer/ serum [3] | also measured |
| --- | --- | --- | --- | --- | --- | --- | --- |
| CCCCCCOC(C)C1=C(C)C2=Cc3c(C(C)OCCCCCC)c(C)c4[n]3[Ga][n]3c(c(C)c(CCC(=O)NC(CC(=O)O)C(=O)O)c3=CC3=NC(=C4)C(C)=C3CCC(=O)NC(CC(=O)O)C(=O)O)=CC1=N2 (stereo not shown) [(10) C6-Ga-DP-diAsp, 2,4-bis(1-hexyloxyethyl)-Ga-deuteroporphynyl diaspartic acid] | hemorrhagic necrosis | G4 | 6.86 | 5.33 | 5.33 | 0.98 | changes of the organs such as the liver, lungs, kidneys excluding the tumor [1, 8]: showed no changes; effect on the cancer mass [1, 8]: developed hemorrhagic necrosis; state of the cancer mass after Yag laser irradiation [2]: necrotic |
| CCCCCCCCOC(C)C1=C(C)C2=Cc3c(C(C)OCCCCCCCC)c(C)c4[n]3[Ga][n]3c(c(C)c(CCC(=O)NC(CC(=O)O)C(=O)O)c3=CC3=NC(=C4)C(C)=C3CCC(=O)NC(CC(=O)O)C(=O)O)=CC1=N2 (stereo not shown) [(12) C8-Ga-DP-diAsp, 2,4-bis(1-octyloxyethyl)-Ga-deuteroporphynyl diaspartic acid] | hemorrhagic necrosis | G3 | 2.12 | 1.47 | 2.20 | 0.29 | concentration at which photosensitivity is manifested [4]: ≥ 1.0 ng/mL |
| CCCCCCCCCCOC(C)C1=C(C)c2cc3[nH]c(cc4nc(cc5[nH]c(cc1n2)c(C)c5C(C)OCCCCCCCCCC)C(C)=C4CCC(=O)NC(CC(=O)O)C(=O)O)c(CCC(=O)NC(CC(=O)O)C(=O)O)c3C.[Ga] (stereo not shown) [(16) C10-Ga-DP-diAsp, 2,4-bis(1-decyloxyethyl)-Ga-deuteroporphynyl diaspartic acid] | hemorrhagic necrosis | G2 | 16.44 | 11.54 | 23.08 | 2.78 | state of the cancer mass after Yag laser irradiation [2]: necrotic |
| CCCCCCCCCCOC(C)C1=C(C)c2cc3[nH]c(cc4nc(cc5[nH]c(cc1n2)c(C)c5C(C)OCCCCCCCCCC)C(C)=C4CCC(=O)NC(CC(=O)O)C(=O)O)c(CCC(=O)NC(CC(=O)O)C(=O)O)c3C.[Mn] (stereo not shown) [(37) C10-Mn-DP-diAsp, 2,4-bis(1-decyloxyethyl)-Mn-deuteroporphynyl diaspartic acid] |  | G3 |  |  |  |  | tumor growth compared to the control group (Fig. 6) [5]: notable tumor growth inhibitory effect; photosensitivity [4]: no photosensitivity |
| CCCCCCCCCCCCOC(C)C1=C(C)C2=Cc3c(C(C)OCCCCCCCCCCCC)c(C)c4[n]3[Mn][n]3c(c(C)c(CCC(=O)NC(CC(=O)O)C(=O)O)c3=CC3=NC(=C4)C(C)=C3CCC(=O)NC(CC(=O)O)C(=O)O)=CC1=N2 (stereo not shown) [(48) C12-Mn-DP-diAsp, 2,4-bis(1-dodecyloxyethyl)-Mn-deuteroporphynyl diaspartic acid] |  | G4 |  |  |  |  | pathological observation of the tumor (Fig. 4) [6]: necrotic tumor cells; tumor growth compared to the control group (Fig. 6) [5]: notable tumor growth inhibitory effect |
| C=Cc1c(C)c2cc3[nH]c(cc4nc(cc5nc(cc1[nH]2)C(C)=C5CCC(=O)OC)C(CCC(=O)OC)=C4C)c(C)c3C=C [PP-Me] |  |  |  |  |  |  | Absorbance [7]: 633 nm; Fluorescence [7]: 635 nm; Phosphorescence life time ([7]; Filter paper): 1.8 ms |
| Ga-protoporphyrin dimethyl ester [Ga-PP-Me] |  |  |  |  |  |  | Absorbance [7]: 570 nm; Fluorescence [7]: 575 nm; Phosphorescence [7]: 715 nm; Phosphorescence life time ([7]; Filter paper): 50 ms; Phosphorescence life time ([7]; Solution): 200 ms |
